Tested on: mice
Assay: Innate behavioral response to odorant in square odor box (3D depth imaging, AR-HMM analysis)
Assay type: in vivo, mouse

CC1=NC(C)SC1C (stereo not drawn) [TMT]
observed behavior of mice on odor exposure (TMT delivered to one quadrant of the square box via olfactometer): avoided the quadrant containing the predator cue and displayed prolonged periods of immobility traditionally described as freezing behavior | per frame entropy rate with self-transitions (after TMT exposure): 0.64±0.02 bits | per frame entropy rate without self-transitions (after TMT exposure): 3.66±0.08 bits | number of times the most commonly-expressed freezing trigram was expressed (after TMT exposure, in 300 minutes of imaging): 716 times | change in behavioral modules relative to control (n=15 in TMT, n=25 control, model co-trained on both datasets): several modules were up-or down-regulated after TMT exposure, but no new modules were introduced or eliminated relative to control | average during-sequence velocity of freezing module sequences (under the influence of TMT, 5% concentration, delivered to one quadrant of the box): −0.14±0.54 mm/sec

From patent US10909691B2, “Automatically classifying animal behavior” (PRESIDENT AND FELLOWS OF HARVARD COLLEGE, priority 2016, dated 2021)
